According to patent US20190218214A1, “Inhibition of BMP Signaling Compounds, Compositions and Uses Thereof” (Vanderbilt University, priority 2016, published 2019):

Key:
ALK2 = target: T1, ALK2 (Homo sapiens, UniProt Q04771); experiment: Selectivity Ki, ALK2; assay type: biochemical
T1 sequence (Q04771 21-509): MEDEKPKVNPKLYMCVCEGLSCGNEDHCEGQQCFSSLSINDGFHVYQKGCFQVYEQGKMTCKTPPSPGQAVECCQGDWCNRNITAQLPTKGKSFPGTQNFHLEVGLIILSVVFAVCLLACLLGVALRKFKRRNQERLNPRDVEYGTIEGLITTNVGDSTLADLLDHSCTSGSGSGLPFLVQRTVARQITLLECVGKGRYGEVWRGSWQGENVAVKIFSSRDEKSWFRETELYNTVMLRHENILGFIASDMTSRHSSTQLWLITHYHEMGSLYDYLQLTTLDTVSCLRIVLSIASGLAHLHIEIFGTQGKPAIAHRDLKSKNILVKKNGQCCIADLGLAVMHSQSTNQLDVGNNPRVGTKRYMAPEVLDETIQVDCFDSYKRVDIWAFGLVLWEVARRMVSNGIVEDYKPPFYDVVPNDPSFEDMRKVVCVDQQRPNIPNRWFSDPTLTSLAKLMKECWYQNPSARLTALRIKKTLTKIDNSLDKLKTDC

[1] = In vitro DMPK intrinsic clearance, human; assay type: in vitro ADME
ALK3 = ALK3 (Homo sapiens, UniProt P36894); experiment: Selectivity Ki, ALK3; assay type: biochemical
ALK3, sequence (P36894 24-532, species assumed): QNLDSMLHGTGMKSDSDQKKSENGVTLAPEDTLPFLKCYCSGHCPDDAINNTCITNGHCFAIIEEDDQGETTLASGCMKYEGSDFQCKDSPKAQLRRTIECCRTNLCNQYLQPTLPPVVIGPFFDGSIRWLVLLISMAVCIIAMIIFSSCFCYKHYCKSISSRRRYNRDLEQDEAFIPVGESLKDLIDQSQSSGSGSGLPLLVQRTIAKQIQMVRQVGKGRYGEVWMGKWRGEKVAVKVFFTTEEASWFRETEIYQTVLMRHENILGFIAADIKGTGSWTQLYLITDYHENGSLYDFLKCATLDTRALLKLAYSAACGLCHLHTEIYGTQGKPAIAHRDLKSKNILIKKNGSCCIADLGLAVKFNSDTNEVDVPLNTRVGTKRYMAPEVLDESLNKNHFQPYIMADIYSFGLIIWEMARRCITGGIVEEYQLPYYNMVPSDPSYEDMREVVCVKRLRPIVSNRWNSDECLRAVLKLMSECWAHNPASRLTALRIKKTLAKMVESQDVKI

[2] = Plasma protein binding, rat; assay type: in vitro ADME; details: read-out: Plasma protein binding (% Fu) Rat
[3] = Plasma protein binding, human; assay type: in vitro ADME; details: read-out: Plasma protein binding (% Fu) Human
[4] = Plasma protein binding, mouse; assay type: in vitro ADME; details: read-out: Plasma protein binding (% Fu) Mouse
BMP4 = BMP4 biological assay (Table 3); assay type: cell-based
[5] = In vitro DMPK intrinsic clearance, rat; assay type: in vitro ADME
ALK1 = ALK1 (Homo sapiens, UniProt P37023); experiment: Selectivity Ki, ALK1; assay type: biochemical
ALK1, sequence (P37023 22-503, species assumed): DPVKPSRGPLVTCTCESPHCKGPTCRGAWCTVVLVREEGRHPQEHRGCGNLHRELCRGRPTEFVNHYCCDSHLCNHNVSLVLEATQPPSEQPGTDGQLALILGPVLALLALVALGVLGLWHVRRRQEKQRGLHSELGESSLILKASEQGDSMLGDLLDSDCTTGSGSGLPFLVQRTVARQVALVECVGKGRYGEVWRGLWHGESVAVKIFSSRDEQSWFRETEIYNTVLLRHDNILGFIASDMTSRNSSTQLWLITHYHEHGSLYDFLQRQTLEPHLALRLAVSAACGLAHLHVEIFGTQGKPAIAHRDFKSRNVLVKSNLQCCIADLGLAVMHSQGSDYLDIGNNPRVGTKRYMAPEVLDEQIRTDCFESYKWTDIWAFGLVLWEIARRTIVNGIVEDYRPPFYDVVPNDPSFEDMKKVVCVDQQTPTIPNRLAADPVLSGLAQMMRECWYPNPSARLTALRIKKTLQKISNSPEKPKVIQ

AMPK = experiment: Selectivity Ki, AMPK; assay type: biochemical
ALK6 = ALK6 (Homo sapiens, UniProt O00238); experiment: Selectivity Ki, ALK6; assay type: biochemical
ALK6, sequence (O00238 14-502): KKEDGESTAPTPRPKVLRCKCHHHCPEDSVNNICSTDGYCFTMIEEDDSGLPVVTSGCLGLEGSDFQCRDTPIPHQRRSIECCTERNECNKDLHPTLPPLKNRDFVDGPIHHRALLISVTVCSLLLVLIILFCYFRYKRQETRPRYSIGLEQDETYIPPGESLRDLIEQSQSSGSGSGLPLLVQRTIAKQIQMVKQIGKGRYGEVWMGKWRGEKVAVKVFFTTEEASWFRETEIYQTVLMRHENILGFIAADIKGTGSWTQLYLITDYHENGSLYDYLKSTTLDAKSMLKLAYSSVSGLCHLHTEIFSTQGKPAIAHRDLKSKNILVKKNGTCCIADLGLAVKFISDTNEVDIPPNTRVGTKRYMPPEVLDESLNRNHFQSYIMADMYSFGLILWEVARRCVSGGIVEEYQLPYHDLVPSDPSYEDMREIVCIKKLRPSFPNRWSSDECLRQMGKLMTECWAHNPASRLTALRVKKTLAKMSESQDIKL

[6] = In vitro DMPK intrinsic clearance, mouse; assay type: in vitro ADME
KDR = KDR (Homo sapiens, UniProt P35968); experiment: Selectivity Ki, KDR; assay type: biochemical
KDR, sequence (P35968 20-1356, species assumed): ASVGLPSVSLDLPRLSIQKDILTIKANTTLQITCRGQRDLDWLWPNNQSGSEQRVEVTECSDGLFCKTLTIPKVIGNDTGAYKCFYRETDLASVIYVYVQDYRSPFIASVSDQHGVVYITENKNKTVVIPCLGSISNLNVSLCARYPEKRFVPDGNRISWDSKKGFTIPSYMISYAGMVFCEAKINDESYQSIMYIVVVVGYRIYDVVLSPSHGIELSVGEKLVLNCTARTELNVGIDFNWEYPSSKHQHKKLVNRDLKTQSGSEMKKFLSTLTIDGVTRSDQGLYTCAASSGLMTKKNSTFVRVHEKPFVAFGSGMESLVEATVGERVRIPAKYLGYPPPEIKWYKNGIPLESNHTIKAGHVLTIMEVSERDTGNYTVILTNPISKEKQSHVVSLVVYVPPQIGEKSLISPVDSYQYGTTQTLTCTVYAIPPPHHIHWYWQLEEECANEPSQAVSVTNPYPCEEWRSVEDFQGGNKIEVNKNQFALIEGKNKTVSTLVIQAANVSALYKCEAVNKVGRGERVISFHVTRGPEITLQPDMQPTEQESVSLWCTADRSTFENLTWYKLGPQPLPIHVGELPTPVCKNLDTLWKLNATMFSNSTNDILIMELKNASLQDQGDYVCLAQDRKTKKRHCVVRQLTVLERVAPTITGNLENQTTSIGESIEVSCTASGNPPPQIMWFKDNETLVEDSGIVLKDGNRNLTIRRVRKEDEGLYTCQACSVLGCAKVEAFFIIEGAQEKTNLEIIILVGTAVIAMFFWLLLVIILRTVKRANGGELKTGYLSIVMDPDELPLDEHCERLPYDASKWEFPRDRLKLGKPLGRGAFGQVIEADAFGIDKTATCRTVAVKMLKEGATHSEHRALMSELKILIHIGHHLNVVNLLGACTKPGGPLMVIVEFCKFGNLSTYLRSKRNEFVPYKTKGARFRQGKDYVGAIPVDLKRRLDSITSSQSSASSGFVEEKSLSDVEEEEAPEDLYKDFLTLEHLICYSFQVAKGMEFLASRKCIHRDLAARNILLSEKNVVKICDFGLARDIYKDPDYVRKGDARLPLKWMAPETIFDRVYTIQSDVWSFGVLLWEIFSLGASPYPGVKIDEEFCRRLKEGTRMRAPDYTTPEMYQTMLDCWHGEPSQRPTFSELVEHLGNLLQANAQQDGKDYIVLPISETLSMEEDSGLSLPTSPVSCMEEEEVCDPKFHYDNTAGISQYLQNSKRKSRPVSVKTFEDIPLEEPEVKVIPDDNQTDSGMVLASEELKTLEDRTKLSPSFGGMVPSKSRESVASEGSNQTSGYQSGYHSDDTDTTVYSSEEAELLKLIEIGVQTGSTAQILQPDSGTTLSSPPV

BMPR2 = target: T2, BMPR2 (Homo sapiens, UniProt Q13873); experiment: Selectivity Ki, BMPR2; assay type: biochemical
T2 sequence (Q13873 27-1038): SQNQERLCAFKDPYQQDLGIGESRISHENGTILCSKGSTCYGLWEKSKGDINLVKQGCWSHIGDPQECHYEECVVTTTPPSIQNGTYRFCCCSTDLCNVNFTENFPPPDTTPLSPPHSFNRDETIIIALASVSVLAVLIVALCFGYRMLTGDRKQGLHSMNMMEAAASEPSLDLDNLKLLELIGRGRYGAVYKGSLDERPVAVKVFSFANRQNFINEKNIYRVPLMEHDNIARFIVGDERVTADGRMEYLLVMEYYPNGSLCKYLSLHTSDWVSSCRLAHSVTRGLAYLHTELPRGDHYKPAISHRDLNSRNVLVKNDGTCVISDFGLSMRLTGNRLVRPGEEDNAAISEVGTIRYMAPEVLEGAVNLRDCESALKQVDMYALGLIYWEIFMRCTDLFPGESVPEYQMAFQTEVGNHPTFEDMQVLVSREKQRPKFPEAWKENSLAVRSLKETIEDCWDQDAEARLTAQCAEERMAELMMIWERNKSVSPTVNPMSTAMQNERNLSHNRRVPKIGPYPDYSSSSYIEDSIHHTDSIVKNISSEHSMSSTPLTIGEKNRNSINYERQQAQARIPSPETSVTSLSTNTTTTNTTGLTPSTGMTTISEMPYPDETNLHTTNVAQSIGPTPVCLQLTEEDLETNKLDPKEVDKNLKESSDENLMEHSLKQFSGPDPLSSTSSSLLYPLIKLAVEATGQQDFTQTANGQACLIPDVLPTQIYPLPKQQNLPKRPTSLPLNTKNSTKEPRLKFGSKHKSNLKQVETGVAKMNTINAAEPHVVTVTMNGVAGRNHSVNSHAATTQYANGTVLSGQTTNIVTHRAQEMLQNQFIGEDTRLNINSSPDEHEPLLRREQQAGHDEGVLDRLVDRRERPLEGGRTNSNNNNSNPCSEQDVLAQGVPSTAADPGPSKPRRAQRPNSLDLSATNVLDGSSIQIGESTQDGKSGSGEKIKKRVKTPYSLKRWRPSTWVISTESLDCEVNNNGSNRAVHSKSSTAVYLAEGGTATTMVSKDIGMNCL

TGFβR2 = TGFβR2 (Homo sapiens, UniProt P37173); experiment: Selectivity Ki, TGFβR2; assay type: biochemical
TGFβR2, sequence (P37173 23-567): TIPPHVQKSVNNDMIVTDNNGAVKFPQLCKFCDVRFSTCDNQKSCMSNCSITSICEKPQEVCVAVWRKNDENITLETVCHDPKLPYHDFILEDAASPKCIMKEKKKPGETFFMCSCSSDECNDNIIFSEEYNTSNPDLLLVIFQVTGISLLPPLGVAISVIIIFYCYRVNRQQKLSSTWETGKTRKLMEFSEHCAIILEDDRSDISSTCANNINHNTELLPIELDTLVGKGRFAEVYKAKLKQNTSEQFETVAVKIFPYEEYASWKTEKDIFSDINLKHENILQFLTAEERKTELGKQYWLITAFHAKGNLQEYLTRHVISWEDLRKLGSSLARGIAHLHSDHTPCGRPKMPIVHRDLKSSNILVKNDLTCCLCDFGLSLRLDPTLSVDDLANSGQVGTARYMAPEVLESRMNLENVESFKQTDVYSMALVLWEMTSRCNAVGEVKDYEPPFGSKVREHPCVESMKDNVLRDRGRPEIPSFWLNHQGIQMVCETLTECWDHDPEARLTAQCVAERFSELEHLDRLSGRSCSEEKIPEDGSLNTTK

ALK4 = target: T3, ALK4 (Homo sapiens, UniProt P36896); experiment: Selectivity Ki, ALK4; assay type: biochemical
T3 sequence (P36896 24-505): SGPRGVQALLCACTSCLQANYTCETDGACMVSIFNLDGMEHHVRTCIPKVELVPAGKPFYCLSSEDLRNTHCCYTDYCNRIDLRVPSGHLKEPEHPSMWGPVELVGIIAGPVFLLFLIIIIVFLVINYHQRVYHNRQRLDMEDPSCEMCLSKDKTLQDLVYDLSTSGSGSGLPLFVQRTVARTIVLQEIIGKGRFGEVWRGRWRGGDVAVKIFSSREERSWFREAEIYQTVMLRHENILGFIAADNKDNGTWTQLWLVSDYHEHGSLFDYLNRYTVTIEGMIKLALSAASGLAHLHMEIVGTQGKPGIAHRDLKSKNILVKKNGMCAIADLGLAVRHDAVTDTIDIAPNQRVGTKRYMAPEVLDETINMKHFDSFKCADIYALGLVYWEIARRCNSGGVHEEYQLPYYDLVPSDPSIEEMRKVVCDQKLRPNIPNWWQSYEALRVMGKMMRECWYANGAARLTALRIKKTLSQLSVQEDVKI

ALK5 = target: T4, ALK5 (Homo sapiens, UniProt P36897); experiment: Selectivity Ki, ALK5; assay type: biochemical
T4 sequence (P36897 34-503): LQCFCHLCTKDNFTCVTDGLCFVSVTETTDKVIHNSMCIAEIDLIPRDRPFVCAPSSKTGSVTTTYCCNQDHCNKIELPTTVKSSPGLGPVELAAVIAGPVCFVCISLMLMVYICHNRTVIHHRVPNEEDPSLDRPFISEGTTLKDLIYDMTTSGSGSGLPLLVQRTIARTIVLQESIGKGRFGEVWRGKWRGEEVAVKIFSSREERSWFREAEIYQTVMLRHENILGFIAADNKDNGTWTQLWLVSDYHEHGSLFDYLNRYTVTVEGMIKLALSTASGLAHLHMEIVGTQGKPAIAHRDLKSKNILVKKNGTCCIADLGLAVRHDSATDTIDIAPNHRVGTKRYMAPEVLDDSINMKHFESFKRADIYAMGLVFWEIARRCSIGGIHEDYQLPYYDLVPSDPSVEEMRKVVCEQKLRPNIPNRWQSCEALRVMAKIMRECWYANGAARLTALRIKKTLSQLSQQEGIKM

Hepcidin expression [7] = experiment: In vitro model of Hepcidin expression (HAMP/HPRT1, alone and with BMP-6); assay type: cell-based; details: as compared to control (FIGS. 6-9)
hepcidin expression [8] = experiment: IRIDA animal model, liver hepcidin mRNA 2 hours after injection; assay type: in vivo; details: Tmprss6−/− mice, 2 hours after injecting (FIG. 13)
Description: The efficacy of compounds was shown in an IRIDA animal model. Initially, an exemplary dose and time point was determined in wild type mice. Briefly, liver mRNA and proteins were extracted. Hepcidin and Id1 mRNA expression was measured by real-time PCR and Smad 1-5-8 phosphorylation was assayed by Western blot analysis. FIGS. 10A-10D depict the RT-PCR data for various inflammatory markers in the liver. FIGS. 11A and 11B depict the RT-PCR data for Hamp mRNA and Id1 mRNA expression. FIG. 12A-12C depict the results of the Western blot analysis.

[9] = read-out: Intrinsic clearance hCLHEP
[10] = read-out: Intrinsic clearance hCLINT

Row | Ki (ALK2) [nM] | CLint scaled [1, 9] [mL/min/kg] | CLint scaled [1, 10] [mL/min/kg] | Ki (ALK3) [nM] | fraction unbound [3] | fraction unbound [4] | IC50 (BMP4) [nM] | Ki (ALK1) [nM] | Compound | further results
1 | 7.2 | 6.1 | 8.6 | 34.6 | 0.021 | 0.009 | 392 | 179 | Cc1cc(-c2cnc3cc(-c4ccc(C5CCN(C(C)C)CC5)cc4)ccn23)c2cc(F)ccc2n1 [Compound 168] | fraction unbound [2]: 0.014; CLint scaled ([5]; read-out: Intrinsic clearance rCLHEP): 14.5 mL/min/kg; CLint scaled ([5]; read-out: Intrinsic clearance rCLINT): 18.2 mL/min/kg
2 | 338 | 19.6 | 294 | < 5.1 | 0.012 | 0.058 | 185 | 4280 | COc1ccc2nc(C)cc(-c3cnc4cc(-c5ccc(N6CCN(C(C)=O)CC6)cc5)ccn34)c2c1 [Compound 48] | Ki (AMPK): 8700 nM; Ki (ALK6): 965 nM; CLint scaled ([6]; read-out: Intrinsic clearance mCLHEP): 71.5 mL/min/kg; CLint scaled ([6]; read-out: Intrinsic clearance mCLINT): 349 mL/min/kg; Ki (KDR): 8730 nM; Ki (BMPR2): > 30000 nM; Ki (TGFβR2): 196 nM; Ki (ALK4): 144 nM; Ki (ALK5): 319 nM; Hepcidin expression (Hepcidin expression [7]): reduced Hepcidin expression as compared to control; Liver hepcidin mRNA expression (hepcidin expression [8]): reduction of hepcidin expression
